Consider nine compounds from patent US20260347373A1, “HETEROCYCLIC COMPOUNDS, COMPOSITIONS THEREOF, AND METHODS OF TREATMENT THEREWITH” (BeOne Medicines I GmbH, priority 2023, published 2026).

The target of test [1] is WT KRAS (Homo sapiens, UniProt P01116). The test can be described thus: KRAS WT Probe Displacement Assay (TR-FRET, GDP-loaded). In kind it is binding. Conditions: KRAS WT, read-out: KRAS^WT Probe Displacement Assay IC50. The source says:
(§1) The synthetic routes of probe 1 and 2, which have been disclosed in PCT/CN2022/070676, are hereby incorporated herein.
In general terms: Time-resolved FRET reads energy transfer from a long-lived donor to a nearby acceptor.

The target in test [2] is KRAS G12D (Homo sapiens, UniProt P01116, G12D). In words: KRAS G12D Probe Displacement Assay (TR-FRET, GDP-loaded). Conditions: KRAS G12D, read-out: KRAS^G12D Probe Displacement Assay IC50. In kind it is binding.
KRAS G12D, sequence (P01116 1-188 isoform P01116-2 G12D): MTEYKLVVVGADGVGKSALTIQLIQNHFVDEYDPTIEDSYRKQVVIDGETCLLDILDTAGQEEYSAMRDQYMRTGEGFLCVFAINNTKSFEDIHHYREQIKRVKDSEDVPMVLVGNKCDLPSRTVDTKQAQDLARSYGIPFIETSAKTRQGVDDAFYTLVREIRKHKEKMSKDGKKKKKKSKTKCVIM
Excerpt: as §1

WT KRAS, sequence (P01116 1-188 isoform P01116-2): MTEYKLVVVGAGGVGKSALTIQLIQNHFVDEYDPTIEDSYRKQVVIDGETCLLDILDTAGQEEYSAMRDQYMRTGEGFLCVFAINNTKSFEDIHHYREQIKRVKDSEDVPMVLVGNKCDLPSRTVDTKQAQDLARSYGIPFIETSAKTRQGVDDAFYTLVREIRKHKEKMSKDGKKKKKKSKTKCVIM

In the case of `Cc1cc(N)cc(-c2nc3c4c(nc(OCC5(CN6CCC(F)(F)CC6)CC5)nc4c2F)N2C[C@H]4CC[C@H](N4)[C@H]2CCO3)c1C(F)(F)F` [Example 70, 3-((6aR,7S,10R)-13-((1-((4,4-difluoropiperidin-1-yl)methyl)cyclopropyl)methoxy)-1-fluoro-5,6,6a,7,8,9,10,11-octahydro-4-oxa-3,11a,12,14,15-pentaaza-7,10-methanocyclohepta[4,5]cycloocta [1,2,3-de]naphthalen-2-yl)-5-methyl-4-(trifluoromethyl)aniline], the IC50 (commonly the point on the concentration scale where inhibition reaches its midpoint) in test [1] was 0.3 to 3 nM; in test [2], below 0.3 nM.
The corresponding values for `Cc1cc(N)cc(-c2nc3c4c(nc(OCC5(CN6CC7CC7(CO)C6)CC5)nc4c2F)N2C[C@H]4CC[C@H](N4)[C@H]2CCO3)c1C(F)(F)F` (mixture of isomers) [Example 99, (3-((1-((((6aR,7S,10R)-2-(5-amino-3-methyl-2-(trifluoromethyl)phenyl)-1-fluoro-5,6,6a,7,8,9,10,11-octahydro-4-oxa-3,11a,12,14,15-pentaaza-7,10-methanocyclohepta [4,5]cycloocta [1,2,3-de]naphthalen-13-yl)oxy)methyl)cyclopropyl)methyl)-3-azabicyclo[3.1.0]hexan-1-yl)methanol] are 0.3 to 3 nM and below 0.3 nM.
The corresponding values for `Cc1cc(N)cc(-c2nc3c4c(nc(OCC5(CN6C[C@@H](C)O[C@@H](C)C6)CC5(F)F)nc4c2F)N2C[C@H]4CC[C@H](N4)[C@H]2CCO3)c1C(F)(F)F` (single isomer, unassigned) [Example 22] are 3 to 1000 nM and below 0.3 nM.
The corresponding values for `Nc1cc(Cl)c(C(F)(F)F)c(-c2nc3c4c(nc(OCC5(CN6CCC(=CF)CC6)CC5)nc4c2F)N2C[C@H]4CC[C@H](N4)[C@H]2CCO3)c1` [Example 156, 3-chloro-5-((6aR,7S,10R)-1-fluoro-13-((1-((4-(fluoromethylene)piperidin-1-yl)methyl)cyclopropyl)methoxy)-5,6,6a,7,8,9,10,11-octahydro-4-oxa-3,11a,12,14,15-pentaaza-7,10-methanocyclohepta[4,5]cycloocta [1,2,3-de]naphthalen-2-yl)-4-(trifluoromethyl)aniline] are 0.3 to 3 nM and below 0.3 nM.
Consider `Cc1cc(N)cc(-c2nc3c4c(nc(OCC56C=CCN5C[C@H](F)C6)nc4c2F)N2C[C@H]4CC[C@H](N4)[C@H]2CCO3)c1C(F)(F)F` (single isomer, unassigned) [Example 204], for which the concentration for half-maximal inhibition (IC50) was 3 to 1000 nM in test [1] and below 0.3 nM in test [2].
`Cc1cc(N)cc(-c2nc3c4c(nc(OCC5(C)CC(F)CN(C6CCOCC6)C5)nc4c2F)N2C[C@H]4CC[C@H](N4)[C@H]2CCO3)c1C(F)(F)F` (single isomer, unassigned) [Example 232]: the figures for the IC50 in test [1] and in test [2] were 0.3 to 3 nM and below 0.3 nM, respectively.
The corresponding values for `Cc1cc(N)cc(-c2nc3c4c(nc(OCC5(C)CC(F)CN(C6CCOCC6)C5)nc4c2F)N2C[C@H]4CC[C@H](N4)[C@H]2CCO3)c1C(F)(F)F` (single isomer, unassigned) [Example 233] are 3 to 1000 nM and 0.3 to 3 nM.
The corresponding values for `Cc1cc(N)cc(-c2nc3c4c(nc(OCC5(CN6C[C@H]7CC[C@@H](C6)O7)CC5)nc4c2F)N2C[C@H]4CC[C@H](N4)[C@H]2CCO3)c1C(F)(F)F` [Example 106, 3-((6aR,7S,10R)-13-((1-(((1R,5S)-8-oxa-3-azabicyclo [3.2.1]octan-3-yl)methyl)cyclopropyl)methoxy)-1-fluoro-5,6,6a, 7,8,9,10,11-octahydro-4-oxa-3,11a,12,14,15-pentaaza-7,10-methanocyclohepta [4,5]cycloocta [1,2,3-de]naphthalen-2-yl)-5-methyl-4-(trifluoromethyl)aniline] are 3 to 1000 nM and below 0.3 nM.
On the same counts, the results for `Cc1cc(N)cc(-c2nc3c4c(nc(OCC5(C)COCC5N(C)C)nc4c2F)N2C[C@H]4CC[C@H](N4)[C@H]2CCO3)c1C(F)(F)F` (single isomer, unassigned) [Example 42] are 3 to 1000 nM and 0.3 to 3 nM.
